Measurements: patent publication US8758810B2, “Liposome compositions” (priority 2005, dated 2014)

System: AsPC-1 cells
Experiment: Cytotoxicity test for oxaliplatin (WST-1 kit)
Format: cell-based
Conditions: l-OHP solutions 48 hours
Procedure: An oxaliplatin (l-OHP) solution was prepared by dissolving oxaliplatin in a 9% sucrose solution (sucrose/distilled water) at a concentration of 8 mg/ml. The cell viability was determined using a commercially available cytotoxicity assay kit (WST-1 kit, Wako Pure Chemical Industries, Ltd., Japan).
AsPC-1 cells (provided by Dr. Hironobu Yanagie of Research Center for Advanced Science and Technology, the University of Tokyo, Japan) cultured in RPMI 1640 medium supplemented with 10% FCS (fetal calf serum; SIGMA, USA) were treated with concentrations of l-OHP solutions [200×(1/2)^(0-10) nM] at 37° C. in 5% CO2 for 48 hours. Then, the medium was removed and a substrate (WST-1, Cell Counting Kit, Dojindo Laboratories, Japan) was added to the cells which were incubated at 37° C. in 5% CO2 for 2 hours to develop the colored product. The developed color was measured at an absorbance of 450 nm (reference wavelength: 620 nm) on an Immuno Mini NJ-2300 (Cosmo Bio Co., Ltd., Japan).

Which “cytotoxicity LD50” value does the source give for `O=C1[O][Pt]2([NH]C3CCCCC3[NH]2)[O]C1=O` [l-OHP, cis-[(1R, 2R)-1,2-cyclohexanediamine-N,N′][oxalato(2)-O,O′]platinum] here?
The value was > 8 µg/mL.
